No end group written: not given here.
How the values were obtained:
[1] = antioxidative activity by linoleic acid-β-carotene degradation method; assay type: biochemical
Description: The antioxidative activity of the peptide fractionated in Example 1 was measured utilizing the β-carotene degradation effect of an oxide of linoleic acid. Specifically, a 300 ml Erlenmeyer flask was charged with 0.5 ml of a β-carotene solution (1 mg/ml chloroform), 0.2 ml of a linoleic acid solution (100 mg/ml chloroform), and 1.0 ml of a Tween 40 solution (200 mg/ml chloroform). After completely removing chloroform using nitrogen gas, 100 ml of distilled water was added to dissolve the components. 9.0 ml of a 0.2 M phosphate buffer (pH: 7.0) was then added to the solution to prepare a linoleic acid-β-carotene solution. 0.18 ml of the linoleic acid-β-carotene solution was added to a […] microwell plate to which 0.02 ml of the peptide fraction was provided. The absorbance S0 at 490 nm was measured immediately after the addition. When preparing the linoleic acid-β-carotene solution, the amount of the β-carotene solution was appropriately adjusted so that the absorbance S0 was about 1.2 (1.1 to 1.3). The microwell plate was placed in a thermostat bath at 50° C. immediately after measuring the absorbance S0, and the peptide fraction was incubated for 30 minutes. The absorbance S30 was measured immediately after incubation. A decrease (ΔS=S0−S30) in absorbance at 490 nm over 30 minutes was then calculated. 70% ethanol was used as a blank instead of the sample and subjected to the above operation. Specifically, the absorbance B0 immediately after adding the linoleic acid-β-carotene solution and the absorbance B30 after being kept at 50° C. for 30 minutes were measured, and a decrease (ΔB=B0−B30) in absorbance at 490 nm over 30 minutes was calculated. The antioxidative activity (antioxidation rate (%)) was determined by substituting the resulting values in the following expression. Antioxidation rate (%)=[ΔB−ΔS]/(ΔB)×100
As a positive control, carnosine (β-Ala-L-His; manufactured by Peptide Institute, Inc.) (muscle-derived antioxidative peptide) prepared to a concentration of 0.01 μg/ml, 0.1 μg/ml, or 1 μg/ml was used.
The antioxidative activity of the peptide obtained in Example 2 was measured in the same manner as in Test Example 1. As a positive control, carnosine (β-Ala-L-His; manufactured by Peptide Institute, Inc.) (muscle-derived antioxidative peptide) and catechin (manufactured by Wako Pure Chemical Industries, Ltd.) (1 μm, 10 μm, or 100 μm) were used. Table 2 and FIG. 3 show the evaluation results for the antioxidative activity of the synthetic peptide.
The antioxidative activities of the two peptides (i.e., tryptic digests) obtained in Examples 3 and the tryptic digest before fractionation were measured using a carotene degradation method in the same manner as in Test Example 2. The peptide concentration was determined by dissolving each peptide in 500 μl of pure water and measuring the peptide concentration using a Micro BCA Protein assay kit (manufactured by Pierce). As a positive control, carnosine (β-Ala-L-His; manufactured by Peptide Institute, Inc.) and catechin (manufactured by Wako Pure Chemical Industries, Ltd.) were used in the same manner as in Test Example 2. A diluted solution (1 ng/ml, 10 ng/ml, and 100 ng/ml) was prepared for each fragment, and the antioxidative activity was evaluated using the β-carotene degradation method.

[2] = test system: rat primary-cultured visceral fat cells (VAC01); test: peptide adipocyte administration experiment; assay type: cell-based
Description: Experiments were conducted in which the peptide isolated from the cheese in Example 1 was administered to primary-cultured visceral fat cells.
The experiments were conducted using rat primary-cultured visceral fat cells (VAC01, manufactured by Cell Garage Co., Ltd.) and a visceral fat cytodifferentiation medium (manufactured by Cell Garage Co., Ltd.). Cells preserved in a frozen state in accordance with the protocol provided by Cell Garage Co., Ltd. were melted and disseminated in a 24-well plate (zeroth day). A culture medium (peptide concentration: 100 μM, 50 μM, 10 μM, or 0 μM) in which the synthetic peptide was dissolved was added to the 24-well plate on the second day, fifth day, and seventh day, and the synthetic peptide was cultured. The culture supernatant liquid was collected on the fifth day, seventh day, and eighth day to measure the adiponectin level. The cells were collected on the eighth day. The enzyme activity of glycerol-3-phosphate dehydrogenase (GPDH) in the cells, the DNA content of each well, and the intracellular fat accumulation level were measured. GPDH is an enzyme that functions when triglyceride is synthesized from glucose to produce mature fat cells. In this example, preadipocytes were differentiated, and the effect of administration of the peptide according to the present invention was observed.
The DNA content was determined using a DNA quantization kit (manufactured by Cell Garage Co., Ltd.).
The glycerol-3-phosphate dehydrogenase (GPDH) enzyme activity in the cells was measured using a GPDH activity measurement kit (manufactured by Cell Garage Co., Ltd.) in accordance with the protocol provided by Cell Garage Co., Ltd. The measurement results were standardized by the content of DNA extracted from each well.
The adiponectin level in the culture supernatant liquid was measured using an adiponectin ELISA kit (manufactured by Otsuka Pharmaceutical Co., Ltd.). The measurement results were standardized by the content of DNA extracted from each well.
The intracellular fat accumulation was determined by fat staining with oil red O and absorbance measurement using a fat staining kit (manufactured by Cell Garage Co., Ltd.).

[3] = sample concentration 0.01 μg/ml, Test Example 1
[4] = sample concentration 0.1 μg/ml, Test Example 1
[5] = sample concentration 1 μg/ml, Test Example 1
[6] = sample concentration 1 μg/ml, Test Example 2
[7] = sample concentration 10 μg/ml, Test Example 2
[8] = sample concentration 100 μg/ml, Test Example 2
[9] = Test Example 3, tryptic digest peptides, 1, 10, 100 ng/ml, FIG. 5

| Compound | Antioxidative activity (%) [1, 3] [%] | Antioxidative activity (%) [1, 4] [%] | Antioxidative activity (%) [1, 5] [%] | Antioxidative activity (%) [1, 6] [%] | Antioxidative activity (%) [1, 7] [%] | Antioxidative activity (%) [1, 8] [%] | antioxidative activity (in words) [1, 9] | other results |
| --- | --- | --- | --- | --- | --- | --- | --- | --- |
| NCCC(=O)N[C@@H](Cc1cnc[nH]1)C(=O)O [Carnosine, β-Ala-L-His, reference compound] | 32.9 | 57.8 | 78.3 | 7.07 | 21.2 | 48.41 |  |  |
| HQGLPQ |  |  |  |  |  |  | strong antioxidative activity |  |
| HPIKHQGLPQ | 13.0 | 41.0 | 64.6 | 32.86 | 61.13 | 63.6 |  | antioxidative activity (in words) ([1]; Test Example 1, peptide purified from Gouda cheese): had antioxidative activity (radical scavenger activity); antioxidative activity (in words) ([1]; Test Example 2, synthetic peptide, FIG. 3): strong antioxidative activity; production of adiponectin (per unit DNA content) vs cells without peptide ([2]; culture supernatant, seventh day, 10, 50, 100 μM, FIG. 6): significantly more adiponectin; cell DNA content of each well vs group without peptide ([2]; eighth day, Student t-test): a significant difference in cell DNA content was not observed; fat accumulation (oil red O staining) vs cells without peptide ([2]; eighth day, Student t-test, FIG. 7): a significant difference in fat accumulation was not observed; GPDH activity (per unit DNA content) vs group without peptide ([2]; peptide 100 μM, eighth day): A significant difference was not observed; fat accumulation (oil red O staining) ([2]; peptide 100 μM, eighth day): decreased to only a small extent; GPDH activity (per unit DNA content) vs group without peptide ([2]; peptide 10 or 50 μM, eighth day): significantly higher |
| His-Pro-Ile-Lys (HPIK; Bovine) |  |  |  |  |  |  | strong antioxidative activity |  |
| catechin [reference compound] |  |  |  | 52.65 | 84.45 | 97.17 |  |  |
